Data taken from patent US20240270762A1, “PENICILLIN-BINDING PROTEIN INHIBITORS” (priority 2021, published 2024).
Converted amounts (≈) assume the structure as drawn.

Experiments:
[1] = system: A. baumannii 1258916; test: microbe, parasite or virus in culture; type: cell-based, Acinetobacter baumannii; settings: Acinetobacter baumannii, 1258916, read-out: MIC, A. baumannii 1258916
[2] = system: P. aeruginosa (ΔmexAB-oprM); test: Broth microdilution MIC in iron-depleted CAMHB (IDM); type: cell-based; settings: Pseudomonas aeruginosa; iron-depleted CAMHB (IDM); […]; read-out: Minimum inhibitory concentration, P. aeruginosa ΔmexAB-oprM
[3] = system: P. aeruginosa CDC-0054; test: microbe, parasite or virus in culture; type: cell-based; settings: Pseudomonas aeruginosa, CDC0054, read-out: Minimum inhibitory concentration, P. aeruginosa CDC-0054
[4] = target: T1, A. baumannii PBP1a (Acinetobacter baumannii, UniProt A0ABX6CK30); test: Bocillin-FL competition binding via gel filtration, A. baumannii PBP1a; settings: competition binding assay using Bocillin-FL via gel filtration; read-out: A. baumannii PBP1a Potency
T1 sequence (A0ABX6CK30 1-851): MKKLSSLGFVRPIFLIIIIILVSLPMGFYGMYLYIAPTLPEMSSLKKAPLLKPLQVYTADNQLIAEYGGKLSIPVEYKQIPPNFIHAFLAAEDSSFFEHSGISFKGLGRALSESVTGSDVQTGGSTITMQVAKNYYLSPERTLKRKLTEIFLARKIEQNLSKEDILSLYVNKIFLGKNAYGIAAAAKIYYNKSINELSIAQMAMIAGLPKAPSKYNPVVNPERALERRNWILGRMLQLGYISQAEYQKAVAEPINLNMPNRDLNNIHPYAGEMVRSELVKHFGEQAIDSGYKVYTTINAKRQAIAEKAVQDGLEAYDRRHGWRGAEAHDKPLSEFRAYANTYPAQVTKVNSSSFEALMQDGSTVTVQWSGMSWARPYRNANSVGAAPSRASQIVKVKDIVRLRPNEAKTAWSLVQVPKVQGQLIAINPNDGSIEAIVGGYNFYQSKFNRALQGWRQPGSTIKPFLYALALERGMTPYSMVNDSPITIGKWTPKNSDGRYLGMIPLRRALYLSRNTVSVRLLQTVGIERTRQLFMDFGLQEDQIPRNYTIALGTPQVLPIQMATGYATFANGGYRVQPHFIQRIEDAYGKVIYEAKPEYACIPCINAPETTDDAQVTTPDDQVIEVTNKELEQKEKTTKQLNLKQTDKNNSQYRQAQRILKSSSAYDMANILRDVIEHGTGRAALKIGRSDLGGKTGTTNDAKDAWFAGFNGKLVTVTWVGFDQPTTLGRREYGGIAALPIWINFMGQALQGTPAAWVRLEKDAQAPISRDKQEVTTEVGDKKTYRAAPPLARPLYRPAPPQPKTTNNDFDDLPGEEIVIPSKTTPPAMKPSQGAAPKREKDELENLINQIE
Procedure, shortened: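 Competitive equilibrium binding with Bocillin-FL reporter: PBP pre-incubated with inhibitor dilutions, Bocillin-FL added, 15 min incubation. Labelled enzyme isolated by size-exclusion spin plates, fluorescence measured; EC50 obtained by fitting bound fraction against inhibitor concentration with a Hill-coefficient model.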

[5] = system: B. thailandensis ATCC 700388; test: microbe, parasite or virus in culture; type: cell-based; settings: Burkholderia thailandensis, ATCC700388, read-out: Minimum inhibitory concentration (MIC), B. thailandensis ATCC 700388
[6] = system: A. baumannii CDC-0036; test: microbe, parasite or virus in culture; type: cell-based; settings: Acinetobacter baumannii, CDC0036, read-out: MIC, A. baumannii CDC-0036
[7] = system: A. baumannii ATCC 17978; test: microbe, parasite or virus in culture; type: cell-based; settings: Acinetobacter baumannii, ATCC17978, read-out: MIC, A. baumannii ATCC 17978

| Compound | MIC [1] [µg/mL] | MIC [2] [µg/mL] | MIC [3] [µg/mL] | EC50 [4] [µM] | MIC [5] [µg/mL] | MIC [6] [µg/mL] | MIC [7] [µg/mL] |
| --- | --- | --- | --- | --- | --- | --- | --- |
| O=C(NCCCN1CCN(C(=O)NC(C(=O)N[C@H]2Cc3ccc(F)c(C(=O)O)c3OB2O)c2cc(F)c(O)c(O)c2Cl)C(=O)C1=O)c1ccc(F)c(O)c1F (stereo partly drawn) [Example 411, (3R)-3-(2-(2-chloro-5-fluoro-3,4-dihydroxyphenyl)-2-(4-(3-(2,4-difluoro-3-hydroxybenzamido)propyl)-2,3-dioxopiperazine-1-carboxamido)acetamido)-7-fluoro-2-hydroxy-3,4-dihydro-2H-benzo[e][1,2]oxaborinine-8-carboxylic acid] | 2 to 4 (≈ 2.51 to 5.03 µM) | < 1 | < 1 | < 10 | 2 to 4 (≈ 2.51 to 5.03 µM) | 2 to 4 (≈ 2.51 to 5.03 µM) | < 1 |
| O=C(O)c1c(F)ccc2c1OB(O)[C@@H](NC(=O)C(NC(=O)N1CCN(C3CCN(C(=O)c4c(F)ccc(O)c4F)CC3)C(=O)C1=O)c1cc(F)c(O)c(O)c1Cl)C2 (stereo partly drawn) [Example 308, (3R)-3-(2-(2-chloro-5-fluoro-3,4-dihydroxyphenyl)-2-(4-(1-(2,6-difluoro-3-hydroxybenzoyl)piperidin-4-yl)-2,3-dioxopiperazine-1-carboxamido)acetamido)-7-fluoro-2-hydroxy-3,4-dihydro-2H-benzo[e][1,2]oxaborinine-8-carboxylic acid] | < 1 | < 1 | < 1 | 10 to 50 | 2 to 4 (≈ 2.43 to 4.87 µM) | 2 to 4 (≈ 2.43 to 4.87 µM) | < 1 |
| O=C(O)c1c(F)ccc2c1OB(O)[C@@H](NC(=O)C(NC(=O)N1CCN(CC3CCN(C(=O)c4cccc(O)c4)CC3)C(=O)C1=O)c1cc(F)c(O)c(O)c1Cl)C2 (stereo partly drawn) [Example 475, (3R)-3-(2-(2-chloro-5-fluoro-3,4-dihydroxyphenyl)-2-(4-((1-(3-hydroxybenzoyl)piperidin-4-yl)methyl)-2,3-dioxopiperazine-1-carboxamido)acetamido)-7-fluoro-2-hydroxy-3,4-dihydro-2H-benzo[e][1,2]oxaborinine-8-carboxylic acid] | < 1 | < 1 | < 1 | 10 to 50 | < 1 | 2 to 4 (≈ 2.5 to 5 µM) | < 1 |
| CN(CCCN1CCN(C(=O)NC(C(=O)N[C@H]2Cc3ccc(F)c(C(=O)O)c3OB2O)c2cc(F)c(O)c(O)c2Cl)C(=O)C1=O)C(=O)c1cccc(O)c1 (stereo partly drawn) [Example 310, (3R)-3-(2-(2-chloro-5-fluoro-3,4-dihydroxyphenyl)-2-(4-(3-(3-hydroxy-N-methylbenzamido)propyl)-2,3-dioxopiperazine-1-carboxamido)acetamido)-7-fluoro-2-hydroxy-3,4-dihydro-2H-benzo[e][1,2]oxaborinine-8-carboxylic acid] | < 1 | < 1 | < 1 | 50 to 250 | 2 to 4 (≈ 2.58 to 5.17 µM) | 2 to 4 (≈ 2.58 to 5.17 µM) | < 1 |
| O=C(NCCCN1CCN(C(=O)NC(C(=O)N[C@H]2Cc3ccc(F)c(C(=O)O)c3OB2O)c2cc(F)c(O)c(O)c2Cl)C1=O)Nc1ccncc1 (stereo partly drawn) [Example 285, (3R)-3-(2-(2-chloro-5-fluoro-3,4-dihydroxyphenyl)-2-(2-oxo-3-(3-(3-(pyridin-4-yl)ureido)propyl)imidazolidine-1-carboxamido)acetamido)-7-fluoro-2-hydroxy-3,4-dihydro-2H-benzo[e][1,2]oxaborinine-8-carboxylic acid] | 2 to 4 (≈ 2.73 to 5.47 µM) | < 1 | 8 to 16 (≈ 10.9 to 21.9 µM) | 10 to 50 | 2 to 4 (≈ 2.73 to 5.47 µM) | 8 to 16 (≈ 10.9 to 21.9 µM) | < 1 |
| Cc1cc(C(=O)NCCCN2CCN(C(=O)NC(C(=O)N[C@H]3Cc4ccc(F)c(C(=O)O)c4OB3O)c3cc(F)c(O)c(O)c3Cl)C(=O)C2=O)c(F)cn1 (stereo partly drawn) [Example 301, (3R)-3-(2-(2-chloro-5-fluoro-3,4-dihydroxyphenyl)-2-(4-(3-(5-fluoro-2-methylisonicotinamido)propyl)-2,3-dioxopiperazine-1-carboxamido)acetamido)-7-fluoro-2-hydroxy-3,4-dihydro-2H-benzo[e][1,2]oxaborinine-8-carboxylic acid] | < 1 | < 1 | < 1 | 10 to 50 | 2 to 4 (≈ 2.57 to 5.15 µM) | 2 to 4 (≈ 2.57 to 5.15 µM) | < 1 |
| O=C(NCCCN1CCN(C(=O)NC(C(=O)N[C@H]2Cc3ccc(F)c(C(=O)O)c3OB2O)c2cc(F)c(O)c(O)c2Cl)C(=O)C1=O)c1cc(F)c(F)c(O)c1F (stereo partly drawn) [Example 404, (3R)-3-(2-(2-chloro-5-fluoro-3,4-dihydroxyphenyl)-2-(2,3-dioxo-4-(3-(2,4,5-trifluoro-3-hydroxybenzamido)propyl)piperazine-1-carboxamido)acetamido)-7-fluoro-2-hydroxy-3,4-dihydro-2H-benzo[e][1,2]oxaborinine-8-carboxylic acid] | 2 to 4 (≈ 2.46 to 4.91 µM) | < 1 | < 1 | < 10 | 2 to 4 (≈ 2.46 to 4.91 µM) | 2 to 4 (≈ 2.46 to 4.91 µM) | < 1 |
| O=C(O)c1c(F)ccc2c1OB(O)[C@@H](NC(=O)C(NC(=O)N1CCN(C3CCN(C(=O)c4ccc(O)cc4O)CC3)C(=O)C1=O)c1cc(F)c(O)c(O)c1Cl)C2 (stereo partly drawn) [Example 476, (3R)-3-(2-(2-chloro-5-fluoro-3,4-dihydroxyphenyl)-2-(4-(1-(2,4-dihydroxybenzoyl)piperidin-4-yl)-2,3-dioxopiperazine-1-carboxamido)acetamido)-7-fluoro-2-hydroxy-3,4-dihydro-2H-benzo[e][1,2]oxaborinine-8-carboxylic acid] | < 1 | < 1 | < 1 | 10 to 50 | < 1 | < 1 | < 1 |
| O=C(NCCCN1CCN(C(=O)N[C@@H](C(=O)N[C@H]2Cc3ccc(F)c(C(=O)O)c3OB2O)c2cc(F)c(O)c(O)c2Cl)C(=O)C1=O)c1ccnc(F)c1F [Example 300, (R)-3-((R)-2-(2-chloro-5-fluoro-3,4-dihydroxyphenyl)-2-(4-(3-(2,3-difluoroisonicotinamido)propyl)-2,3-dioxopiperazine-1-carboxamido)acetamido)-7-fluoro-2-hydroxy-3,4-dihydro-2H-benzo[e][1,2]oxaborinine-8-carboxylic acid] | < 1 | < 1 | < 1 | 10 to 50 | 2 to 4 (≈ 2.56 to 5.12 µM) | 2 to 4 (≈ 2.56 to 5.12 µM) | < 1 |
| O=C(NCCCN1CCN(C(=O)NC(C(=O)N[C@H]2Cc3ccc(F)c(C(=O)O)c3OB2O)c2cc(F)c(O)c(O)c2Cl)C(=O)C1=O)c1c(F)cc(O)cc1Cl (stereo partly drawn) [Example 421, (3R)-3-(2-(2-chloro-5-fluoro-3,4-dihydroxyphenyl)-2-(4-(3-(2-chloro-6-fluoro-4-hydroxybenzamido)propyl)-2,3-dioxopiperazine-1-carboxamido)acetamido)-7-fluoro-2-hydroxy-3,4-dihydro-2H-benzo[e][1,2]oxaborinine-8-carboxylic acid] | 2 to 4 (≈ 2.46 to 4.92 µM) | < 1 | < 1 | < 10 | 2 to 4 (≈ 2.46 to 4.92 µM) | 2 to 4 (≈ 2.46 to 4.92 µM) | < 1 |
| O=C(NCCCN1CCN(C(=O)NC(C(=O)N[C@H]2Cc3ccc(F)c(C(=O)O)c3OB2O)c2cc(F)c(O)c(O)c2Cl)C(=O)C1=O)c1c(F)ccc(O)c1F (stereo partly drawn) [Example 413, (3R)-3-(2-(2-chloro-5-fluoro-3,4-dihydroxyphenyl)-2-(4-(3-(2,6-difluoro-3-hydroxybenzamido)propyl)-2,3-dioxopiperazine-1-carboxamido)acetamido)-7-fluoro-2-hydroxy-3,4-dihydro-2H-benzo[e][1,2]oxaborinine-8-carboxylic acid] | 2 to 4 (≈ 2.51 to 5.03 µM) | < 1 | < 1 | < 10 | 2 to 4 (≈ 2.51 to 5.03 µM) | 2 to 4 (≈ 2.51 to 5.03 µM) | < 1 |
